Measured values published in the NIST ThermoML archive (doi:10.1021/je900715y).
Numbers after ± are expanded uncertainties.

Assay: xn = mol fraction of the nth substance listed
Conditions: 101.3 kPa, Liquid

CCC(C)O (stereo not given) [butan-2-ol] + CCCCCCC
mass density [kg/m3]
Conditions | 288.15 K | 293.15 K | 298.15 K | 303.15 K | 308.15 K | 313.15 K | 318.15 K | 323.15 K
x1 = 0.05 | 691.106 ± 0.63 | 686.813 ± 0.64 | 682.487 ± 0.65 | 678.127 ± 0.65 | 673.731 ± 0.66 | 669.301 ± 0.67 | 664.835 ± 0.67 | 660.336 ± 0.68
x1 = 0.1 | 694.641 ± 0.63 | 690.325 ± 0.64 | 685.97 ± 0.65 | 681.576 ± 0.65 | 677.138 ± 0.66 | 672.659 ± 0.66 | 668.131 ± 0.67 | 663.562 ± 0.68
x1 = 0.15 | 698.486 ± 0.63 | 694.158 ± 0.64 | 689.789 ± 0.64 | 685.376 ± 0.65 | 680.913 ± 0.66 | 676.402 ± 0.66 | 671.84 ± 0.67 | 667.23 ± 0.68
x1 = 0.2003 | 702.573 ± 0.63 | 698.236 ± 0.63 | 693.854 ± 0.64 | 689.427 ± 0.65 | 684.946 ± 0.65 | 680.415 ± 0.66 | 675.83 ± 0.67 | 671.188 ± 0.67
x1 = 0.3016 | 711.547 ± 0.62 | 707.194 ± 0.62 | 702.791 ± 0.63 | 698.341 ± 0.64 | 693.835 ± 0.65 | 689.275 ± 0.65 | 684.65 ± 0.66 | 679.969 ± 0.67
x1 = 0.4004 | 721.346 ± 0.61 | 716.97 ± 0.62 | 712.546 ± 0.62 | 708.073 ± 0.63 | 703.542 ± 0.64 | 698.952 ± 0.64 | 694.299 ± 0.65 | 689.584 ± 0.66
x1 = 0.5002 | 732.429 ± 0.6 | 728.035 ± 0.61 | 723.591 ± 0.62 | 719.095 ± 0.62 | 714.54 ± 0.63 | 709.925 ± 0.64 | 705.243 ± 0.64 | 700.502 ± 0.65
x1 = 0.5999 | 744.751 ± 0.59 | 740.362 ± 0.6 | 735.917 ± 0.61 | 731.411 ± 0.61 | 726.839 ± 0.62 | 722.202 ± 0.63 | 717.496 ± 0.63 | 712.72 ± 0.64
x1 = 0.65 | 751.547 ± 0.59 | 747.174 ± 0.6 | 742.739 ± 0.6 | 738.239 ± 0.61 | 733.67 ± 0.61 | 729.03 ± 0.62 | 724.317 ± 0.63 | 719.533 ± 0.63
x1 = 0.72 | 761.59 ± 0.58 | 757.255 ± 0.59 | 752.851 ± 0.59 | 748.373 ± 0.6 | 743.821 ± 0.61 | 739.19 ± 0.61 | 734.479 ± 0.62 | 729.69 ± 0.63
x1 = 0.8 | 774.103 ± 0.57 | 769.827 ± 0.58 | 765.479 ± 0.59 | 761.053 ± 0.59 | 756.541 ± 0.6 | 751.943 ± 0.6 | 747.257 ± 0.61 | 742.488 ± 0.62
x1 = 0.8499 | 782.463 ± 0.57 | 778.238 ± 0.57 | 773.935 ± 0.58 | 769.552 ± 0.59 | 765.08 ± 0.59 | 760.519 ± 0.6 | 755.863 ± 0.6 | 751.116 ± 0.61
x1 = 0.8995 | 791.187 ± 0.56 | 787.015 ± 0.57 | 782.767 ± 0.57 | 778.434 ± 0.58 | 774.01 ± 0.59 | 769.495 ± 0.59 | 764.879 ± 0.6 | 760.166 ± 0.6
x1 = 0.9501 | 800.691 ± 0.56 | 796.583 ± 0.56 | 792.396 ± 0.57 | 788.125 ± 0.57 | 783.761 ± 0.58 | 779.299 ± 0.59 | 774.738 ± 0.59 | 770.073 ± 0.6
x1 = 1 | 810.689 ± 0.55 | 806.646 ± 0.56 | 802.528 ± 0.56 | 798.326 ± 0.57 | 794.03 ± 0.57 | 789.632 ± 0.58 | 785.117 ± 0.58 | 780.515 ± 0.59
